Measured values published in US11897851B2, “Heterocyclic GLP-1 agonists” (Gasherbrum Bio, Inc., priority 2021, dated 2024).

target: T1, GLP-1 Receptor (Homo sapiens, UniProt P43220); assay: GLP-1R agonist cAMP stimulation assay (HEK293/GLP1R/CRE-LUC cells, Cisbio cAMP dynamic 2 kit); type: cell-based; details: HEK293/CRE-Luc cell line stably expressing the GLP-1 Receptor; 1000 cells/well; 30 min at 37° C.; 0.5 mM IBMX, 0.1% BSA; read-out: GLP1R cAMP Stimulation DR: EC50;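 also: compounds tested in half-log serial dilution, cAMP detected with cAMP-d2 and anti-cAMP cryptate antibody reagents after 1 h at room temperature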
T1 construct: host or cells: HEK293/GLP1R/CRE-LUC (HEK293/CRE-Luc stably expressing the GLP-1 receptor)
T1 sequence (P43220 24-463, species assumed): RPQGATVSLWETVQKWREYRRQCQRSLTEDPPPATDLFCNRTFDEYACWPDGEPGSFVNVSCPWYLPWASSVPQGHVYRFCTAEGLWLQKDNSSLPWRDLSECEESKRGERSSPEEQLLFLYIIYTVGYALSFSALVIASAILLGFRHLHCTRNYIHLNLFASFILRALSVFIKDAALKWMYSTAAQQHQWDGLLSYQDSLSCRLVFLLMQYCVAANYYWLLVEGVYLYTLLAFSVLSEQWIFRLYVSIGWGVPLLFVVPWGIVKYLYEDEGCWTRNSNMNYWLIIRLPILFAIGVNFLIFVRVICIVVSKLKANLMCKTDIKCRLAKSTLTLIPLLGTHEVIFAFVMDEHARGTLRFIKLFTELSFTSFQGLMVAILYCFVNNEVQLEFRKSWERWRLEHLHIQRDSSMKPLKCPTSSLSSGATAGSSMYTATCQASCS

| EC50 | SMILES |
| --- | --- |
| 0.22 nM | CC1(c2ccc(Cl)cc2F)Oc2cccc(C3CCN(Cc4ncc(/C=C/C(=O)O)n4CCN4CCOC4=O)CC3)c2O1 (stereo not shown) [Compound 200, (E)-3-(2-((4-(2-(4-chloro-2-fluorophenyl)-2-methylbenzo[d][1,3]dioxol-4-yl)piperidin-1-yl)methyl)-1-(2-(2-oxooxazolidin-3-yl)ethyl)-1H-imidazol-5-yl)acrylic acid] |
| 0.14 nM | CC1(c2ccc(Cl)cc2F)Oc2cccc(C3CCN(Cc4ncc(/C=C/C(=O)O)n4CC4CC4)CC3)c2O1 (stereo not shown) [Compound 162, (E)-3-(2-((4-(2-(4-chloro-2-fluorophenyl)-2-methylbenzo[d][1,3]dioxol-4-yl)piperidin-1-yl)methyl)-1-(cyclopropylmethyl)-1H-imidazol-5-yl)acrylic acid] |
| 0.12 nM | CC1(c2ccc(Cl)cc2F)Oc2cccc(C3CCN(Cc4ncc(/C=C/C(=O)O)n4C[C@H]4CCCO4)CC3)c2O1 (stereo partly drawn) [Compound 160, (E)-3-(2-((4-(2-(4-chloro-2-fluorophenyl)-2-methylbenzo[d][1,3]dioxol-4-yl)piperidin-1-yl)methyl)-1-(((R)-tetrahydrofuran-2-yl)methyl)-1H-imidazol-5-yl)acrylic acid] |
| 0.38 nM | CC1(c2ccc(Cl)cc2F)Oc2cccc(C3CCN(Cc4ncc(CCC(=O)O)n4CC4CCS4(=O)=O)CC3)c2O1 (stereo not shown) [Compound 240, 3-(2-((4-(2-(4-chloro-2-fluorophenyl)-2-methylbenzo[d][1,3]dioxol-4-yl)piperidin-1-yl)methyl)-1-((1,1-dioxidothietan-2-yl)methyl)-1H-imidazol-5-yl)propanoic acid] |
| 0.98 nM | CCc1ncccc1Cn1c(/C=C/C(=O)O)cnc1CN1CCC(c2cccc3c2OC(C)(c2ccc(Cl)cc2F)O3)CC1 (stereo not shown) [Compound 148, (E)-3-(2-((4-(2-(4-chloro-2-fluorophenyl)-2-methylbenzo[d][1,3]dioxol-4-yl)piperidin-1-yl)methyl)-1-((2-ethylpyridin-3-yl)methyl)-1H-imidazol-5-yl)acrylic acid] |
| 0.015 nM | CCn1cncc1Cn1c(CCC(=O)O)nnc1CN1CCC(c2cccc3c2OC(C)(c2ccc(Cl)cc2F)O3)CC1 (stereo not shown) [Compound 144, 3-(5-((4-(2-(4-chloro-2-fluorophenyl)-2-methylbenzo[d][1,3]dioxol-4-yl)piperidin-1-yl)methyl)-4-((1-ethyl-1H-imidazol-5-yl)methyl)-4H-1,2,4-triazol-3-yl)propanoic acid] |
| 0.099 nM | C/C(=C\c1cnc(CN2CCC(c3cccc4c3O[C@@](C)(c3ccc(Cl)cc3F)O4)CC2)n1C[C@@H]1CCO1)C(=O)O (single isomer, unassigned) [Compound 131a] |
| 0.54 nM | O=C(O)/C=C/c1cnc(CN2CCC(c3cccc(OCc4ccc(Cl)cc4F)n3)CC2)n1CC1CCC1 [Compound 211, (E)-3-(2-((4-(6-((4-chloro-2-fluorobenzyl)oxy)pyridin-2-yl)piperidin-1-yl)methyl)-1-(cyclobutylmethyl)-1H-imidazol-5-yl)acrylic acid] |
| 0.016 nM | CCn1cncc1Cn1c(/C=C/C(=O)O)cnc1CN1CCC(c2cccc3c2OC[C@@H](c2ccc(Cl)cc2)O3)CC1 [Compound 207a, (R,E)-3-(2-((4-(2-(4-chlorophenyl)-2,3-dihydrobenzo [b][1,4]dioxin-5-yl)piperidin-1-yl)methyl)-1-((1-ethyl-1H-imidazol-5-yl)methyl)-1H-imidazol-5-yl)acrylic acid] |
| 0.24 nM | CCc1ncoc1Cn1c(/C=C/C(=O)O)cnc1CN1CCC(c2cccc3c2OC(C)(c2ccc(Cl)cc2F)O3)CC1 (stereo not shown) [Compound 184, (E)-3-(2-((4-(2-(4-chloro-2-fluorophenyl)-2-methylbenzo[d][1,3]dioxol-4-yl)piperidin-1-yl)methyl)-1-((4-ethyloxazol-5-yl)methyl)-1H-imidazol-5-yl)acrylic acid] |
| 0.16 nM | C[C@]1(c2ccc(Cl)cc2F)Oc2cccc(C3CCN(Cc4ncc(/C=C/C(=O)O)n4CCOC(F)(F)F)CC3)c2O1 [Compound 145, (S,E)-3-(2-((4-(2-(4-chloro-2-fluorophenyl)-2-methylbenzo[d][1,3]dioxol-4-yl)piperidin-1-yl)methyl)-1-(2-(trifluoromethoxy)ethyl)-1H-imidazol-5-yl)acrylic acid] |
| 0.033 nM | C[C@]1(c2ccc(Cl)cc2F)Oc2cccc(C3CCN(Cc4ncc(/C=C/C(=O)O)n4C[C@@H]4CCO4)CC3)c2O1 [Compound 135a, (E)-3-(2-((4-((S)-2-(4-chloro-2-fluorophenyl)-2-methylbenzo[d][1,3]dioxol-4-yl)piperidin-1-yl)methyl)-1-(((S)-oxetan-2-yl)methyl)-1H-imidazol-5-yl)acrylic acid] |
| 817 nM | O=C(O)C1CC1c1ccc(CN2CCC(c3cccc(OCc4ccc(Cl)cc4F)n3)CC2)nc1 (stereo not shown) [Compound 126, 2-(6-((4-(6-((4-chloro-2-fluorobenzyl)oxy)pyridin-2-yl)piperidin-1-yl)methyl)pyridin-3-yl)cyclopropane-1-carboxylic acid] |
| 10 nM | CC1(c2ccc(Cl)cc2F)Oc2cccc(C3CCN(Cc4ncc(-c5nnc(C(F)(F)F)[nH]5)cc4CC4CCCS4(=O)=O)CC3)c2O1 (stereo not shown) [Compound 266, 2-{[2-({4-[2-(4-chloro-2-fluorophenyl)-2-methyl-2H-1,3-benzodioxol-4-yl]piperidin-1-yl}methyl)-5-[5-(trifluoromethyl)-4H-1,2,4-triazol-3-yl]pyridin-3-yl]methyl}-1λ^6-thiolane-1,1-dione] |
| 13 nM | COCCn1c(Cc2noc(=O)[nH]2)cnc1CN1CCC(c2cccc3c2OC(C)(c2ccc(Cl)cc2F)O3)CC1 (stereo not shown) [Compound 251, 3-((2-((4-(2-(4-chloro-2-fluorophenyl)-2-methylbenzo[d][1,3]dioxol-4-yl)piperidin-1-yl)methyl)-1-(2-methoxyethyl)-1H-imidazol-5-yl)methyl)-1,2,4-oxadiazol-5(4H)-one] |
| 0.13 nM | CC1(c2ccc(Cl)cc2F)Oc2cccc(C3CCN(Cc4ncc(/C=C/C(=O)O)n4[C@@H]4CCOC4)CC3)c2O1 (stereo partly drawn) [Compound 163, (E)-3-(2-((4-(2-(4-chloro-2-fluorophenyl)-2-methylbenzo[d][1,3]dioxol-4-yl)piperidin-1-yl)methyl)-1-((R)-tetrahydrofuran-3-yl)-1H-imidazol-5-yl)acrylic acid] |
| 0.26 nM | CC1(c2ccc(Cl)cc2F)Oc2cccc(C3CCN(Cc4ncc(/C=C/C(=O)O)n4CC4(F)COC4)CC3)c2O1 (stereo not shown) [Compound 157, (E)-3-(2-((4-(2-(4-chloro-2-fluorophenyl)-2-methylbenzo[d][1,3]dioxol-4-yl)piperidin-1-yl)methyl)-1-((3-fluorooxetan-3-yl)methyl)-1H-imidazol-5-yl)acrylic acid] |
| 17 nM | CC1(C)C[C@H](Cn2c(/C=C/C(=O)O)cnc2CN2CCC(c3cccc4c3O[C@@](C)(c3ccc(Cl)cc3F)O4)CC2)CO1 [Compound 171b, (E)-3-(2-((4-((S)-2-(4-chloro-2-fluorophenyl)-2-methylbenzo[d][1,3]dioxol-4-yl)piperidin-1-yl)methyl)-1-(((R)-5,5-dimethyltetrahydrofuran-3-yl)methyl)-1H-imidazol-5-yl)acrylic acid] |
| 1.7 nM | C/C(=C\c1nnc(CN2CCC(c3cccc(OCc4ccc(Cl)cc4F)n3)CC2)n1CCS(C)(=O)=O)C(=O)O [Compound 227, (E)-3-(5-((4-(6-((4-chloro-2-fluorobenzyl)oxy)pyridin-2-yl)piperidin-1-yl)methyl)-4-(2-(methylsulfonyl)ethyl)-4H-1,2,4-triazol-3-yl)-2-methylacrylic acid] |
